Patent US20050238733A1, “Topical anesthesia of the urinary bladder” (priority 2000, published 2005)

Key:
[1] = pKa and base-form fraction of local anesthetics in aqueous solution; assay type: physicochemical
Text: The pKa is the pH at which 50% of the drug in an aqueous solution will be in the base form and 50% in the ion or charged form. As the pH of the solution falls, more of the drug converts into the ion form. Since the pH scale is a logarithmic scale, these changes are quite marked over a small pH range.
The pKa is the pH at which 50% of the drug in solution will be in the base form and 50% in the salt form. As the pH rises above the pKa, more of the drug will dissociate and convert into the free base non-ionic form. […] Local anesthetics and their pharmacology are discussed in detail in Remington's Pharmaceutical Sciences, A. Osol, ed., Mack Pub. Co., Easton, Pa. (16th ed. 1980) and the Merck Index (11th ed., 1989).

[2] = not given; remark: listed apart in the source
mast cells = conditions: low concentrations, opposite effect to inhibition; cited from earlier work

CCN(CC)CC(=O)Nc1c(C)cccc1C [lidocaine]
fraction of drug in the base form ([1]; pH 5.8): 0.5% | fraction of drug in the base form ([1]; pH 6.8): 5% | peak blood levels of radiolabeled lidocaine (anesthetized rabbits, intra-vesical, pH 8.1): 800 CPM/0.1 ml of blood | tissue levels of radioactive labeled lidocaine in bladder mucosa (live rabbit bladder, 45 minutes in situ, pH 8.45): declined rapidly to almost the same as at the pH levels below 8.0 | peak tissue levels of radioactive labeled lidocaine in bladder mucosa (live rabbit bladder, 45 minutes in situ, pH between 8.1 and 8.25): around 3,500,000 CPM/g of tissue | lidocaine levels compared with previously reported levels ([2]; alkalinized intravesical lidocaine, serum): ten times higher | peak blood (serum) levels of lidocaine ([2]; human volunteers, 4, 5 or 6 mg/kg 5% lidocaine intravesical with 8.4% sodium bicarbonate, pH 8.0, all subjects, within the first hour): 0.5-2 ug/cc | mean peak concentration of lidocaine in blood ([2]; human volunteers, at 30 minutes): 1.06 µg/mL | concentration at which lidocaine causes mast cells to release their histamine content (mast cells): < 1 mmol
